Assay results reported in paper PMC11932207, “Regulating AMPA Receptors with Isoxazole-4-Carboxamide Derivatives: An Electrophysiological Study” (Journal of Xenobiotics, 2025).
Read-outs that look alike come from different tables or passages of the source.

How the values were obtained:
Type in all cases: cell-based
[1] = biological target: T1, GluN1a/2B (Homo sapiens, UniProt Q05586+Q13224); experiment: Selectivity: whole-cell normalized peak current of NMDA receptor GluN1a/2B; conditions: 16 µM compound, HEK293t, −60 mV
T1 construct: expressed in transfected cells; host or cells: HEK293t cells
T1 sequence (Q13224 27-1484, other chains not shown): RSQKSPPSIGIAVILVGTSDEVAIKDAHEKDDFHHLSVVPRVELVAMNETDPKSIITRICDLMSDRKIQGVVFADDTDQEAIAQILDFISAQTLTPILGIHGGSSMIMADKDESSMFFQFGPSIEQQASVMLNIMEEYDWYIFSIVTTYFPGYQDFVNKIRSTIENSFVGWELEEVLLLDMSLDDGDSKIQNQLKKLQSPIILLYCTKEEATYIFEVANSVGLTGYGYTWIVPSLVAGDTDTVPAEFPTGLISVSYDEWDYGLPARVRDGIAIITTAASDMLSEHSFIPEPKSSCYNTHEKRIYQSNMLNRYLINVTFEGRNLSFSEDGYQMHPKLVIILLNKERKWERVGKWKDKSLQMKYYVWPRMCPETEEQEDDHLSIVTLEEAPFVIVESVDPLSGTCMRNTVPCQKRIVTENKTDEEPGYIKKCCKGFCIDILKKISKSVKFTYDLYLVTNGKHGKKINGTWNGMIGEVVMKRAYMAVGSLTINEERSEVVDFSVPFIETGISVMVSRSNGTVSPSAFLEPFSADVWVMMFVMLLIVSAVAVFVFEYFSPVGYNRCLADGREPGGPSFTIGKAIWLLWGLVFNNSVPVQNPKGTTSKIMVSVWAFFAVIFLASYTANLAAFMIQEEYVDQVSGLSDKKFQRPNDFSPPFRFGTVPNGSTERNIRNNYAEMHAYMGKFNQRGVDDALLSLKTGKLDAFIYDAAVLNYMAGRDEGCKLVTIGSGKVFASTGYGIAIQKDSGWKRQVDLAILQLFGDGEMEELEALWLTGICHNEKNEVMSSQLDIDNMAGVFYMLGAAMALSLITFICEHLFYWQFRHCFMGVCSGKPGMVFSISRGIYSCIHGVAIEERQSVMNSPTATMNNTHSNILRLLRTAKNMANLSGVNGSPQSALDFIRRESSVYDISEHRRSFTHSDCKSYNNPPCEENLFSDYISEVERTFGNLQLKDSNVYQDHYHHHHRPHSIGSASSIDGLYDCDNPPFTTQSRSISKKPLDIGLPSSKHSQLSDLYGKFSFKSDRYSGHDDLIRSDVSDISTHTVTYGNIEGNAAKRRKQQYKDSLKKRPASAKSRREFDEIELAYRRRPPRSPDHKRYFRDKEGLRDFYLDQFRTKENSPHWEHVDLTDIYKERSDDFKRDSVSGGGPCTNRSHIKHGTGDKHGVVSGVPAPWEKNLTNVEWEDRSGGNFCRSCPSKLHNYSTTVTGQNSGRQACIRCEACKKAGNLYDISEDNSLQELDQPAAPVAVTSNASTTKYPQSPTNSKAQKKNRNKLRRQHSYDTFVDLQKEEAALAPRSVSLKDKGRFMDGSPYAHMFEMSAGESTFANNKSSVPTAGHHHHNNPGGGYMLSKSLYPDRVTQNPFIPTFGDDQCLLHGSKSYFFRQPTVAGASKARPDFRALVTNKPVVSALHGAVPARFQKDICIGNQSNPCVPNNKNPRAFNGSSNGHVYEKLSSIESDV
Method: (§1) To evaluate the selectivity of CIC-1 and CIC-2 derivatives, their effects on GluN1a/2A and GluN1a/2B of the NMDA receptors were tested. The normalized peak current responses of the subunits alone and with CIC-1 and CIC-2 were determined (Figure 4).
(§2) Figure 4 The inhibitory actions of Isoxazole-4-carboxamide derivatives on the whole-cell currents mediated by GluA2, GluA2/3 AMPA receptor subtypes and GluN1a/2A, […] receptor subtypes. (a) represents data for CIC-1 and CIC-2 compounds. AMPA- and NMDA-induced currents (black bars) are then compared to currents recorded in the presence of 16 µM CIC compounds (white bars). Panels (b–e) show representative traces of whole-cell current responses to a 1 ms administration of 10 mM glutamate for the subunits. The traces show normalized responses for glutamate alone (black) and glutamate in combination with CIC compounds (color-coded). The recording was performed in HEK293t cells at −60 mV, pH 7.4, and 22 °C. Data present mean ± SD from 3–4 different experiments. *** p < 0.001; and “ns” indicates not significant.

[2] = biological target: T2, GluA2/3 (UniProt P19491+P42263); experiment: Whole-cell patch clamp recordings of heteromeric GluA2/3 AMPA receptor currents and kinetics in transfected HEK293t cells
T2 construct: expressed in transfected cells; host or cells: HEK293T (HEK293) cells, transient co-transfection
T2 sequence (P19491 22-883 isoform P19491-2 limits assumed): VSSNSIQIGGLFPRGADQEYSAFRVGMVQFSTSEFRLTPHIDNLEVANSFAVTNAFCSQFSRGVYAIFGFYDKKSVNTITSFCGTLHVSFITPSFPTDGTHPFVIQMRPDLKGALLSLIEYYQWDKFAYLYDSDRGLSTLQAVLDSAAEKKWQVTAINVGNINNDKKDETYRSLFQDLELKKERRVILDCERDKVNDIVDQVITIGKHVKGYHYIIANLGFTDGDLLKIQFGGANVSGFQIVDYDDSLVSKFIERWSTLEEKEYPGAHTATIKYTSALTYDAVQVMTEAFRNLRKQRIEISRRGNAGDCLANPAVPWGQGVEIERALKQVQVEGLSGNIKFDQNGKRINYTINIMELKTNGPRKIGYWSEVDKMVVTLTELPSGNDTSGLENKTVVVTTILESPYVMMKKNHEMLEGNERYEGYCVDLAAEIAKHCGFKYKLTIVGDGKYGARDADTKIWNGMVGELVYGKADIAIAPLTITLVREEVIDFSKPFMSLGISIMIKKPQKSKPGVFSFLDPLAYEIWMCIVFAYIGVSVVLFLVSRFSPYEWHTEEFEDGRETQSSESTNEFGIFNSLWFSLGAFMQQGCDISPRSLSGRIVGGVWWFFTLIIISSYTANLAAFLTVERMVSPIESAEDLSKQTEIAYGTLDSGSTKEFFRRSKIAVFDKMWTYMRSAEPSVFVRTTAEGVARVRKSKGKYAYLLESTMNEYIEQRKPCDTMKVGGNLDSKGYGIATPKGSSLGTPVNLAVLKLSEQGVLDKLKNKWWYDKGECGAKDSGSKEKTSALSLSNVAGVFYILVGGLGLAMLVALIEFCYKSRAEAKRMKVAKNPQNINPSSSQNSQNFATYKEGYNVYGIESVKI
T2 sequence (P42263 29-894 isoform P42263-2 limits assumed): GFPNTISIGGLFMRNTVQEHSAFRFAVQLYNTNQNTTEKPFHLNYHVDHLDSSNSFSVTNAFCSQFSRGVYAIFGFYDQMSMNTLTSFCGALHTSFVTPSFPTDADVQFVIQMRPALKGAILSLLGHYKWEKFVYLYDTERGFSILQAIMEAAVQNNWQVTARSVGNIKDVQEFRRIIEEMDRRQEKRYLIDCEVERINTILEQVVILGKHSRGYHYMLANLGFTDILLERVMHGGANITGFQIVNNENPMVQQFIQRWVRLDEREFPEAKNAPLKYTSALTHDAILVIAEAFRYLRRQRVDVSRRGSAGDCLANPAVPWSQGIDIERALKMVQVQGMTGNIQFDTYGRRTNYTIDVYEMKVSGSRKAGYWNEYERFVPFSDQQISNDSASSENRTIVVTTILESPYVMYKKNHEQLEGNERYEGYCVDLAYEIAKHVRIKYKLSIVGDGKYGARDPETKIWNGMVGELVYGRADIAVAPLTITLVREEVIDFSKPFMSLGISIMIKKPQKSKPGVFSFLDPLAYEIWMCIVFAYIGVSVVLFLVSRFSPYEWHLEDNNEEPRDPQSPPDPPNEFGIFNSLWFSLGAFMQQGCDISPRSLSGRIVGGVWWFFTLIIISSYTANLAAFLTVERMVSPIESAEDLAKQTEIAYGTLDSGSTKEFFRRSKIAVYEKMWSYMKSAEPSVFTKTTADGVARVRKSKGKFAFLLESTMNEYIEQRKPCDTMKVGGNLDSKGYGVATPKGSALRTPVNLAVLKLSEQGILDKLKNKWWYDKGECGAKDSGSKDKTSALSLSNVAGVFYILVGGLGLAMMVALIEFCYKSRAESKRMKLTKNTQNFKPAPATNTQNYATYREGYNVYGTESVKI
Source text: (§3) The AMPA receptor subunits utilized in this study were of the flip isoform. The flip variant of the GluA2 subunit was originally provided by S. F. Heinemann (Salk Institute, La Jolla, CA, USA) in a pBlueScript plasmid. This plasmid was subsequently sub-cloned into a pRK vector to enable expression in HEK293 cells, which were sourced from Sigma, Germany. Additionally, the unedited version of GluA2 (R607Qjj, flip isoform) and enhanced green fluorescent protein (EGFP), both contained in pRK5 vectors, were generously supplied by P. H. Seeburg (Max Planck Institute for Medical Research, Heidelberg, Germany). Chemical-mediated ways induced transfection. GluA2 homomers were expressed into HEK293 cells by the co-transfection of 1 μg GluA2 plasmid with an equal amount of GFP expression vectors (1:1 ratio) into the cells. In addition, co-transfection was conducted for heteromeric GluA2/3 subunits at a ratio of 1:1.2 for optimum expression. For post-transfection experiments, cells were plated in 10% fetal calf serum and antibiotics in DMEM in Petri plates. These cultures were maintained under carefully controlled conditions—37 °C and 5% CO2 within a humidified incubator. The selection of cells for recordings was based on fluorescence intensity. Highly GFP-positive cells were identified and isolated for further analysis, ensuring precise targeting of transfected populations.
(§4) Whole-cell patch clamp recordings were performed on HEK293t cells 36–48 h after transfection. Experiments were conducted at 22 °C, maintaining a holding potential of −60 mV, using an Integrated Patch Amplifier (IPA) from Sutter Instruments (Novato, CA, USA). Data acquisition was managed with SutterPatch Software v. 1.1.1 (Sutter Instruments), employing a sampling rate of 10 kHz and setting the low-pass filter at 2 kHz. […] The external solution contained 150 mM NaCl, 2.8 mM KCl, 0.5 mM MgCl2, 2 mM CaCl2, and 10 mM HEPES, adjusted to a pH of 7.4 using NaOH. The internal pipette solution was composed of 110 mM CsF, 30 mM CsCl, 4 mM NaCl, 0.5 mM CaCl2, 10 mM trypsin-EDTA solution B (0.25%), 0.05% EDTA, and 10 mM HEPES, with the pH adjusted to 7.2 using CsOH.
(§5) A dual-barrel glass pipette (theta tube) was employed for the rapid delivery of glutamate and other solutions. The theta tube was attached to a high-speed piezoelectric solution exchange system (Automate Scientific, Berkeley, CA, USA). To assess the efficiency of solution exchange, open-tip potentials were measured by applying solutions with different ionic compositions after the patch was expelled from the pipette. The time required for a 10–90% change in the solution was generally less than […].
(§6) Data analysis was performed with Igor Pro8.04 software (Wave Metrics, Inc., Portland, OR, USA). AMPA receptor deactivation and desensitization kinetics were measured by applying 10 mM glutamate for 1 ms and 500 ms, respectively. The currents from the AMPA receptor were fitted to a double-exponential model to quantify deactivation and desensitization time constants measured from the double-exponential fits. The weighted tau (τw) is calculated as: τw = (τf × af) + (τs × as), where τf and τs are the time constants of fast and slow exponential components and af and as represent their relative amplitudes.
(§7) Data are presented as the mean ± standard deviation (SD). The total number of HEK293 cells engaged was n = 10. The experimental groups were compared to the wild type using a one-way analysis of variance (ANOVA). Statistical significance was assessed using p values: p < 0.05 (*) indicated significance, p < 0.01 (**) indicated high significance, and p < 0.001 (***) indicated very high significance. The value “ns” indicates non-significance. Concentration–response relationships were modeled using the Hill equation with the resulting combined plots via GraphPad Prism software (version 6.01, GraphPad Software). The data presented are the means from 3–4 experimental replicates. […]

[3] = biological target: T3, GluN1a/2A (Homo sapiens, UniProt Q05586+Q12879); experiment: Selectivity: whole-cell normalized peak current of NMDA receptor GluN1a/2A; conditions: 16 µM compound, HEK293t, −60 mV
T3 construct: expressed in transfected cells; host or cells: HEK293t cells
T3 sequence (Q12879 23-1464, other chains not shown): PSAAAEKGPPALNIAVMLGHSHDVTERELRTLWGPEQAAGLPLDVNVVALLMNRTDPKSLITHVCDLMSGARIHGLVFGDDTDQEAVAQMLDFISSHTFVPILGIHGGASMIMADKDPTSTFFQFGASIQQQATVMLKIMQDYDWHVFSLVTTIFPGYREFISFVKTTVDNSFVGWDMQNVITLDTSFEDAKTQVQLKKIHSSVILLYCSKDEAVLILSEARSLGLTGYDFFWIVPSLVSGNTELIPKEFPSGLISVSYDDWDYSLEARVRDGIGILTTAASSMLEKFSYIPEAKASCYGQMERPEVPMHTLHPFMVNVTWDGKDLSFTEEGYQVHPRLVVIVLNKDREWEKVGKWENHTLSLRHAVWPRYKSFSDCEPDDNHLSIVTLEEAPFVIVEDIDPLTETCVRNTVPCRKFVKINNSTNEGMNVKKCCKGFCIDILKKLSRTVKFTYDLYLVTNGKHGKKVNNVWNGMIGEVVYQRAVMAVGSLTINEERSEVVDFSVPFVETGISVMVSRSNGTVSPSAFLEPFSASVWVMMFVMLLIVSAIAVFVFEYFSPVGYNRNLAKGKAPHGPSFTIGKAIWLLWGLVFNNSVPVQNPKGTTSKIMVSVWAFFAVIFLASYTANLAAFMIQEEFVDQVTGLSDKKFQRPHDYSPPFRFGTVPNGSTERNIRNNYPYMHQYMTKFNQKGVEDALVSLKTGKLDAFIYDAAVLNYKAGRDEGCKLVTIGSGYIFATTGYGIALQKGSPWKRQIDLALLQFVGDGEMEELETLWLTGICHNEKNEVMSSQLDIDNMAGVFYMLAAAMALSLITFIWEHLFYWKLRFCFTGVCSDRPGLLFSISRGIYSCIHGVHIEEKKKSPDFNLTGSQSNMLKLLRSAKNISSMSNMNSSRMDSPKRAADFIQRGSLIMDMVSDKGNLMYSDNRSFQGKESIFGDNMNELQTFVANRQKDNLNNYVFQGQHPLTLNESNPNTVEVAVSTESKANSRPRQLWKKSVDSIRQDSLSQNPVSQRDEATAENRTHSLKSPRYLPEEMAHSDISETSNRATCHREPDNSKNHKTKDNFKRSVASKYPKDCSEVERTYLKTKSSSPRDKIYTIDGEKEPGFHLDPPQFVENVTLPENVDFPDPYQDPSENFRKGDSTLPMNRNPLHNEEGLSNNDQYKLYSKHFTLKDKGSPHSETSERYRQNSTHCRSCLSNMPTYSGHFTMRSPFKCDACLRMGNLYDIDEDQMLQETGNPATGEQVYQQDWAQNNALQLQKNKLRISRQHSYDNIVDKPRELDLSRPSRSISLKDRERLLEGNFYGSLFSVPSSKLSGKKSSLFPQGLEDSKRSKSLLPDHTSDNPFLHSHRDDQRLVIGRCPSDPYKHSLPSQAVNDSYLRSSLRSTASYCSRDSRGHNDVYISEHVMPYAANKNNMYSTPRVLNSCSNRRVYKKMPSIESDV
Method: as §1, §2

[4] = biological target: T4, GluA2 (Rattus norvegicus, UniProt P19491); experiment: Whole-cell patch clamp recordings of homomeric GluA2 AMPA receptor currents and kinetics in transfected HEK293t cells
T4 construct: expressed in transfected cells; host or cells: HEK293T (HEK293) cells, transient co-transfection with a separate EGFP vector
T4 sequence (P19491 22-883 isoform P19491-2 limits assumed): as the sequence (P19491 22-883 isoform P19491-2 limits assumed) above
Source text: as §3, §4, §5, §6, §7

[5] = 16 µM compound co-applied with agonist, HEK293t, −60 mV, pH 7.4, 22 °C, mean ± SD, n = 10
[6] = 16 µM compound, mean ± SD, n = 10
[7] = 10 mM glutamate for 1 ms, with compound, mean ± SD
[8] = 10 mM glutamate for 500 ms, with compound, mean ± SD
[9] = concentration–response fit, read-out: Log IC50 (converted)
[10] = glutamate alone after the compound, mean ± SD, n = 10
[11] = inhibition of whole-cell peak current, concentration–response, Hill fit, read-out: IC50
[12] = versus glutamate alone, one-way ANOVA

COc1cc(NC(=O)c2c(-c3c(Cl)cccc3Cl)noc2C)c(OC)cc1Cl [CIC-2, N-(4-chloro-2,5-dimethoxyphenyl)-3-(2,6-dichlorophenyl)-5-methylisoxazole-4-carboxamide]
Effect on normalized peak current [1]: statistically not significant
Amplitude (peak whole-cell current in presence of compound) [2, 5]: 75 ± 6 pA
A/AI (amplitude ratio, glutamate alone / with compound) [2, 6]: 7.65±0.45
t deact (weighted deactivation time constant) [2, 7]: 7.8 ± 0.4 ms
t des (weighted desensitization time constant) [2, 8]: 0.8 ± 0.1 ms
IC50 [2, 9]: 3.31 µM
Amplitude, applying glutamate alone after compound [2, 10]: 552±44 pA
IC50 [2, 11]: 3.32 µM
Increase of deactivation time constant (τdeac) ([2]; versus control): approximately 4 fold
Effect on desensitization kinetics (τdes), in words [2, 12]: accelerating desensitization
Effect on normalized peak current [3]: statistically not significant
Amplitude (peak whole-cell current in presence of compound) [4, 5]: 160 ± 12 pA
A/AI (amplitude ratio, glutamate alone / with compound) [4, 6]: 7.79±0.42
t deact (weighted deactivation time constant) [4, 7]: 7.9 ± 0.3 ms
t des (weighted desensitization time constant) [4, 8]: 0.7 ± 0.1 ms
IC50 [4, 9]: 3.16 µM
Amplitude, applying glutamate alone after compound [4, 10]: 1213±94 pA
IC50 [4, 11]: 3.18 µM
Increase of deactivation time constant (τdeac) ([4]; versus control): approximately 4 fold
Effect on desensitization kinetics (τdes), in words [4, 12]: accelerating desensitization
